Patent US8192962B2, “Processes for detecting toxic substances” (Daikin Industries, Ltd., priority 2001, dated 2012)

Tested on: Unknown protein yeast genes
Experiment: DNA chip mRNA expression in yeast, unknown protein yeast genes (Table 1)
Assay type: cell-based, Saccharomyces cerevisiae S288C
Summary of the method: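 Measured as treated-to-untreated fluorescence ratio on a full-genome yeast DNA chip. Cells (S288C, YPD, 25° C.) were exposed in log phase for two hours to one chemical, dosed to curb growth without killing.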

SMILES: S=C([S-])NCCNC(=S)[S-].[Zn+2] [(11), zinc N,N′-ethylenebis(dithiocarbamate)]
- The level of expressed mRNA in the presence of chemical substance/The level of expressed mRNA in the absence of chemical substance (yeast gene YKL153W, incubated two hours with chemical substance): 2.1
- The level of expressed mRNA in the presence of chemical substance/The level of expressed mRNA in the absence of chemical substance (yeast gene YKL195W, incubated two hours with chemical substance): 1.0
- The level of expressed mRNA in the presence of chemical substance/The level of expressed mRNA in the absence of chemical substance (yeast gene YKR033C): 0.3
- The level of expressed mRNA in the presence of chemical substance/The level of expressed mRNA in the absence of chemical substance (yeast gene YKR091W, incubated two hours with chemical substance): 1.1
- The level of expressed mRNA in the presence of chemical substance/The level of expressed mRNA in the absence of chemical substance (yeast gene YLR054C, incubated two hours with chemical substance): 0.7
- The level of expressed mRNA in the presence of chemical substance/The level of expressed mRNA in the absence of chemical substance (yeast gene YLR149C, incubated two hours with chemical substance): 2.8
- The level of expressed mRNA in the presence of chemical substance/The level of expressed mRNA in the absence of chemical substance (yeast gene YLR152C, incubated two hours with chemical substance): 3.6
- The level of expressed mRNA in the presence of chemical substance/The level of expressed mRNA in the absence of chemical substance (yeast gene YLR194C, incubated two hours with chemical substance): 1.4
- The level of expressed mRNA in the presence of chemical substance/The level of expressed mRNA in the absence of chemical substance (yeast gene YLR324W, incubated two hours with chemical substance): 0.9
- The level of expressed mRNA in the presence of chemical substance/The level of expressed mRNA in the absence of chemical substance (yeast gene YLR350W, incubated two hours with chemical substance): 0.9
- The level of expressed mRNA in the presence of chemical substance/The level of expressed mRNA in the absence of chemical substance (yeast gene YLR387C, incubated two hours with chemical substance): 0.9
- The level of expressed mRNA in the presence of chemical substance/The level of expressed mRNA in the absence of chemical substance (yeast gene YLR460C): 14.3
- The level of expressed mRNA in the presence of chemical substance/The level of expressed mRNA in the absence of chemical substance (yeast gene YML117W, incubated two hours with chemical substance): 0.8
- The level of expressed mRNA in the presence of chemical substance/The level of expressed mRNA in the absence of chemical substance (yeast gene YMR009W, incubated two hours with chemical substance): 2.1
- The level of expressed mRNA in the presence of chemical substance/The level of expressed mRNA in the absence of chemical substance (yeast gene YMR067C, incubated two hours with chemical substance): 1.1
- The level of expressed mRNA in the presence of chemical substance/The level of expressed mRNA in the absence of chemical substance (yeast gene YMR090W): 8.8
- The level of expressed mRNA in the presence of chemical substance/The level of expressed mRNA in the absence of chemical substance (yeast gene YMR095C, incubated two hours with chemical substance): 2.1
- The level of expressed mRNA in the presence of chemical substance/The level of expressed mRNA in the absence of chemical substance (yeast gene YMR097C, incubated two hours with chemical substance): 1.5
- The level of expressed mRNA in the presence of chemical substance/The level of expressed mRNA in the absence of chemical substance (yeast gene YMR102C, incubated two hours with chemical substance): 1.5
- The level of expressed mRNA in the presence of chemical substance/The level of expressed mRNA in the absence of chemical substance (yeast gene YMR107W, incubated two hours with chemical substance): 3.0
- The level of expressed mRNA in the presence of chemical substance/The level of expressed mRNA in the absence of chemical substance (yeast gene YMR180C, incubated two hours with chemical substance): 0.7
- The level of expressed mRNA in the presence of chemical substance/The level of expressed mRNA in the absence of chemical substance (yeast gene YMR184W, incubated two hours with chemical substance): 1.5
- The level of expressed mRNA in the presence of chemical substance/The level of expressed mRNA in the absence of chemical substance (yeast gene YMR191W, incubated two hours with chemical substance): 2.3
- The level of expressed mRNA in the presence of chemical substance/The level of expressed mRNA in the absence of chemical substance (yeast gene YMR295C, incubated two hours with chemical substance): 1.2
- The level of expressed mRNA in the presence of chemical substance/The level of expressed mRNA in the absence of chemical substance (yeast gene YMR316W, incubated two hours with chemical substance): 1.5
- The level of expressed mRNA in the presence of chemical substance/The level of expressed mRNA in the absence of chemical substance (yeast gene YNL044W, incubated two hours with chemical substance): 1.1
- The level of expressed mRNA in the presence of chemical substance/The level of expressed mRNA in the absence of chemical substance (yeast gene YNL074C, incubated two hours with chemical substance): 1.3
- The level of expressed mRNA in the presence of chemical substance/The level of expressed mRNA in the absence of chemical substance (yeast gene YNL092W, incubated two hours with chemical substance): 0.7
- The level of expressed mRNA in the presence of chemical substance/The level of expressed mRNA in the absence of chemical substance (yeast gene YNL115C, incubated two hours with chemical substance): 1.1
- The level of expressed mRNA in the presence of chemical substance/The level of expressed mRNA in the absence of chemical substance (yeast gene YNL156C, incubated two hours with chemical substance): 1.4
- The level of expressed mRNA in the presence of chemical substance/The level of expressed mRNA in the absence of chemical substance (yeast gene YNL234W, incubated two hours with chemical substance): 1.3
- The level of expressed mRNA in the presence of chemical substance/The level of expressed mRNA in the absence of chemical substance (yeast gene YNL281W, incubated two hours with chemical substance): 1.6
- The level of expressed mRNA in the presence of chemical substance/The level of expressed mRNA in the absence of chemical substance (yeast gene YNL305C, incubated two hours with chemical substance): 1.8
- The level of expressed mRNA in the presence of chemical substance/The level of expressed mRNA in the absence of chemical substance (yeast gene YNR068C, incubated two hours with chemical substance): 1.1
- The level of expressed mRNA in the presence of chemical substance/The level of expressed mRNA in the absence of chemical substance (yeast gene YOL032W, incubated two hours with chemical substance): 1.4
- The level of expressed mRNA in the presence of chemical substance/The level of expressed mRNA in the absence of chemical substance (yeast gene YOL036W, incubated two hours with chemical substance): 2.2
- The level of expressed mRNA in the presence of chemical substance/The level of expressed mRNA in the absence of chemical substance (yeast gene YOL047C, incubated two hours with chemical substance): 0.9
- The level of expressed mRNA in the presence of chemical substance/The level of expressed mRNA in the absence of chemical substance (yeast gene YOL071W, incubated two hours with chemical substance): 4.3
- The level of expressed mRNA in the presence of chemical substance/The level of expressed mRNA in the absence of chemical substance (yeast gene YOL082W, incubated two hours with chemical substance): 1.6
- The level of expressed mRNA in the presence of chemical substance/The level of expressed mRNA in the absence of chemical substance (yeast gene YOL083W, incubated two hours with chemical substance): 1.3
- The level of expressed mRNA in the presence of chemical substance/The level of expressed mRNA in the absence of chemical substance (yeast gene YOL117W, incubated two hours with chemical substance): 1.0
- The level of expressed mRNA in the presence of chemical substance/The level of expressed mRNA in the absence of chemical substance (yeast gene YOL131W, incubated two hours with chemical substance): 1.4
- The level of expressed mRNA in the presence of chemical substance/The level of expressed mRNA in the absence of chemical substance (yeast gene YOL150C): 9.4
- The level of expressed mRNA in the presence of chemical substance/The level of expressed mRNA in the absence of chemical substance (yeast gene YOL162W, incubated two hours with chemical substance): 4.3
- The level of expressed mRNA in the presence of chemical substance/The level of expressed mRNA in the absence of chemical substance (yeast gene YOR019W, incubated two hours with chemical substance): 1.7
- The level of expressed mRNA in the presence of chemical substance/The level of expressed mRNA in the absence of chemical substance (yeast gene YOR197W, incubated two hours with chemical substance): 1.0
- The level of expressed mRNA in the presence of chemical substance/The level of expressed mRNA in the absence of chemical substance (yeast gene YPL087W, incubated two hours with chemical substance): 2.5
- The level of expressed mRNA in the presence of chemical substance/The level of expressed mRNA in the absence of chemical substance (yeast gene YPL196W, incubated two hours with chemical substance): 1.7
- The level of expressed mRNA in the presence of chemical substance/The level of expressed mRNA in the absence of chemical substance (yeast gene YPL206C, incubated two hours with chemical substance): 1.5
- The level of expressed mRNA in the presence of chemical substance/The level of expressed mRNA in the absence of chemical substance (yeast gene YPL222W, incubated two hours with chemical substance): 1.2
- The level of expressed mRNA in the presence of chemical substance/The level of expressed mRNA in the absence of chemical substance (yeast gene YPR023C, incubated two hours with chemical substance): 1.7
- The level of expressed mRNA in the presence of chemical substance/The level of expressed mRNA in the absence of chemical substance (yeast gene YPR151C, incubated two hours with chemical substance): 1.4
